Reference: patent US20110009381A1, “SOLUBILIZED THIAZOLOPYRIDINES” (Sirtis Pharmaceuticals, Inc., priority 2007, published 2011)

The compounds below were run against T1, SIRT1 (Homo sapiens, UniProt Q96EB6) (assay: Mass spectrometry based assay to identify modulators of SIRT1 activity (deacetylation of p53-based acetylated peptide substrate)). Conditions: 10 nM SIRT1, 0.5 μM peptide substrate, 120 μM βNAD+, 25 minutes at 25° C.
T1 sequence (Q96EB6 1-747): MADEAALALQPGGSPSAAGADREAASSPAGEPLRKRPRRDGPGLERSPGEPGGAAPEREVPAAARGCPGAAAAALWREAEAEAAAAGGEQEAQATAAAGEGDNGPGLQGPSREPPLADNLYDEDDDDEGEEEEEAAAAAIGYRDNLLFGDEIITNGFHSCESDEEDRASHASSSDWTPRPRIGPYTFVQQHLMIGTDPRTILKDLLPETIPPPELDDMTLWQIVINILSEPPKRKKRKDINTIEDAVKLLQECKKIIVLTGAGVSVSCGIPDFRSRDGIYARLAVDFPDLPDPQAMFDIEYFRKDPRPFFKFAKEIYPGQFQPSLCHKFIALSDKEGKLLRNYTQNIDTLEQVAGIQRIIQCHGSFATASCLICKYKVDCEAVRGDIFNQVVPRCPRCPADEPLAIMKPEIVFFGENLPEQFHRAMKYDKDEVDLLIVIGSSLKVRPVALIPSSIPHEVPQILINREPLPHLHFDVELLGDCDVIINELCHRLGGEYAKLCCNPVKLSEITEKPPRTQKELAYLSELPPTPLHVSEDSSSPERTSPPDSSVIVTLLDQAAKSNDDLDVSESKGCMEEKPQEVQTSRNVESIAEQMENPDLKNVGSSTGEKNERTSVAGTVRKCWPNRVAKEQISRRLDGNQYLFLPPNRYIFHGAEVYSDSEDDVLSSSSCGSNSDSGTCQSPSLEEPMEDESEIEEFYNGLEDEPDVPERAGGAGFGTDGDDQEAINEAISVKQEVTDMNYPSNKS
Type: biochemical
Description: A mass spectrometry based assay was used to identify modulators of SIRT1 activity. The mass spectrometry based assay utilizes a peptide having 20 amino acid residues as follows: Ac-EE-K(biotin)-GQSTSSHSK(Ac)NleSTEG-K(5TMR)-EE-NH2 (SEQ ID NO: 1) wherein K(Ac) is an acetylated lysine residue and Nle is a norleucine. The peptide is labeled with the fluorophore 5TMR (excitation 540 nm/emission 580 nm) at the C-terminus. The sequence of the peptide substrate is based on p53 with several modifications. In addition, the methionine residue naturally present in the sequence was replaced with the norleucine because the methionine may be susceptible to oxidation during synthesis and purification.
The mass spectrometry assay is conducted as follows: 0.5 μM peptide substrate and 120 μM βNAD^+ is incubated with 10 nM SIRT1 for 25 minutes at 25° C. in a reaction buffer (50 mM Tris-acetate pH 8, 137 mM NaCl, 2.7 mM KCl, 1 mM MgCl2, 5 mM DTT, 0.05% BSA). Test compounds may be added to the reaction as described above. The SirT1 gene is cloned into a T7-promoter containing vector and transformed into BL21(DE3). After the 25 minute incubation with SIRT1, 10 μL of 10% formic acid is added to stop the reaction. Reactions are sealed and frozen for later mass spec analysis. Determination of the mass of the substrate peptide allows for precise determination of the degree of acetylation (i.e. starting material) as compared to deacetylated peptide (product).
A control for inhibition of sirtuin activity is conducted by adding 1 μL of 500 mM nicotinamide as a negative control at the start of the reaction (e.g., permits determination of maximum sirtuin inhibition). A control for activation of sirtuin activity is conducted using 10 nM of sirtuin protein, with 1 μL of DMSO in place of compound, to determine the amount of deacetylation of the substrate at a given timepoint within the linear range of the assay. This timepoint is the same as that used for test compounds and, within the linear range, the endpoint represents a change in velocity.
For the above assay, SIRT1 protein was expressed and purified as follows. The SirT1 gene was cloned into a T7-promoter containing vector and transformed into BL21(DE3). The protein was expressed by induction with 1 mM IPTG as an N-terminal His-tag fusion protein at 18° C. overnight and harvested at 30,000×g. Cells were lysed with lysozyme in lysis buffer (50 mM Tris-HCl, 2 mM Tris[2-carboxyethyl]phosphine (TCEP), 10 μM ZnCl2, 200 mM NaCl) and further treated with sonication for 10 min for complete lysis. The protein was purified over a Ni-NTA column (Amersham) and fractions containing pure protein were pooled, concentrated and run over a sizing column (Sephadex S200 26/60 global). The peak containing soluble protein was collected and run on an Ion-exchange column (MonoQ). Gradient elution (200 mM-500 mM NaCl) yielded pure protein. This protein was concentrated and dialyzed against dialysis buffer (20 mM Tris-HCl, 2 mM TCEP) overnight. The protein was aliquoted and frozen at −80° C. until further use.
Sirtuin modulating compounds that activated SIRT1 were identified using the assay described above and are shown below in Table 1. The EC1-5 values for the activating compounds are represented by A′ (EC1.5<250 nM), A (EC1.5≧250 nM and ≦1 uM), B (EC1.5>1 and ≦10 uM), or C (EC1.5>10 uM). The percent maximum fold activation is represented by A (Fold activation≧300%), B (Fold Activation≧150% and <300%), or C (Fold Activation<150%).

Question: For `Cl.O=C(Nc1ccccc1-c1nc2cccnc2s1)c1cc(NCCN2CCCC2)nc(-c2ccccc2)n1` [Compound 62], which “FOLD ACT. (percent maximum fold activation)” value is on record?
Answer: A (Fold activation≧300%)

Question: With `O=C(Nc1ccccc1-c1nc2cccnc2s1)c1cc(NC2CCCCC2)nc(-c2ccccc2)n1` [Compound 63] as the compound, how does the “FOLD ACT. (percent maximum fold activation)” value read?
Answer: C (Fold Activation<150%)

Question: How did the “FOLD ACT. (percent maximum fold activation)” value turn out when `CNc1cc(C(=O)Nc2ccccc2-c2nc3cccnc3s2)nc(-c2ccccc2)n1` [Compound 64] was run?
Answer: C (Fold Activation<150%)

Question: Which “FOLD ACT. (percent maximum fold activation)” value does the source give for `CC(C)N1CCN(c2cc(C(=O)Nc3ccccc3-c3nc4cccnc4s3)nc(-c3ccccc3)n2)CC1.Cl` [Compound 65] here?
Answer: B (Fold Activation≧150% and <300%)

Question: `Cl.O=C(Nc1ccccc1-c1nc2cccnc2s1)c1cc(NCCN2CCCCC2)nc(-c2ccccc2)n1` [Compound 67] was tested. Which “FOLD ACT. (percent maximum fold activation)” value did it give?
Answer: A (Fold activation≧300%)

Question: How did the “FOLD ACT. (percent maximum fold activation)” value turn out when `COCCN(CCOC)c1cc(C(=O)Nc2ccccc2-c2nc3cccnc3s2)nc(-c2ccccc2)n1` [Compound 68] was run?
Answer: A (Fold activation≧300%)

Question: How did the “FOLD ACT. (percent maximum fold activation)” value turn out when `O=C(Nc1ccccc1-c1nc2cccnc2s1)c1cc(NC(CO)CO)nc(-c2ccccc2)n1` [Compound 69] was run?
Answer: A (Fold activation≧300%)

Question: With `C[C@@H]1CN(c2cc(C(=O)Nc3ccccc3-c3nc4cccnc4s3)nc(-c3ccccc3)n2)C[C@H](C)O1` [Compound 70] as the compound, how does the “FOLD ACT. (percent maximum fold activation)” value read?
Answer: B (Fold Activation≧150% and <300%)

Question: With `O=C(Nc1ccccc1-c1nc2cccnc2s1)c1cc(N2C[C@H]3C[C@@H]2CN3)nc(-c2ccccc2)n1` [Compound 71] as the compound, how does the “FOLD ACT. (percent maximum fold activation)” value read?
Answer: A (Fold activation≧300%)

Question: With `O=C(Nc1ccccc1-c1nc2cccnc2s1)c1cc(NC2CCCNC2)nc(-c2ccccc2)n1` (stereo not drawn) [Compound 72] as the compound, how does the “FOLD ACT. (percent maximum fold activation)” value read?
Answer: A (Fold activation≧300%)

Question: `CCSCCNc1cc(C(=O)Nc2ccccc2-c2nc3cccnc3s2)nc(-c2ccccc2)n1` [Compound 73] was tested. Which “FOLD ACT. (percent maximum fold activation)” value did it give?
Answer: B (Fold Activation≧150% and <300%)

Question: For `CCS(=O)(=O)CCNc1cc(C(=O)Nc2ccccc2-c2nc3cccnc3s2)nc(-c2ccccc2)n1` [Compound 74], which “FOLD ACT. (percent maximum fold activation)” value is on record?
Answer: A (Fold activation≧300%)

Question: For `C[C@H](Nc1cc(C(=O)Nc2ccccc2-c2nc3cccnc3s2)nc(-c2ccccc2)n1)C(=O)O` [Compound 75], which “FOLD ACT. (percent maximum fold activation)” value is on record?
Answer: A (Fold activation≧300%)

Question: For `NCCCOc1cc(C(=O)Nc2ccccc2-c2nc3cccnc3s2)nc(-c2ccccc2)n1` [Compound 76], which “FOLD ACT. (percent maximum fold activation)” value is on record?
Answer: A (Fold activation≧300%)

Question: With `O=C(Nc1ccccc1-c1nc2cccnc2s1)c1ccc(CN2CCOCC2)c(-c2ccccc2)n1` [Compound 77] as the compound, how does the “FOLD ACT. (percent maximum fold activation)” value read?
Answer: B (Fold Activation≧150% and <300%)

Same assay, conditions: SIRT1 activation; 10 nM SIRT1, 0.5 μM peptide substrate, 120 μM βNAD+, 25 minutes at 25° C.

Question: Which EC1.5 does the source give for `Cl.O=C(Nc1ccccc1-c1nc2cccnc2s1)c1cc(NCCN2CCCC2)nc(-c2ccccc2)n1` [Compound 62] here?
Answer: A′ (EC1.5<250 nM)

Question: With `O=C(Nc1ccccc1-c1nc2cccnc2s1)c1cc(NC2CCCCC2)nc(-c2ccccc2)n1` [Compound 63] as the compound, how does the EC1.5 read?
Answer: C (EC1.5>10 uM)

Question: `CNc1cc(C(=O)Nc2ccccc2-c2nc3cccnc3s2)nc(-c2ccccc2)n1` [Compound 64] was tested. Which EC1.5 did it give?
Answer: C (EC1.5>10 uM)

Question: Which EC1.5 does the source give for `CC(C)N1CCN(c2cc(C(=O)Nc3ccccc3-c3nc4cccnc4s3)nc(-c3ccccc3)n2)CC1.Cl` [Compound 65] here?
Answer: A′ (EC1.5<250 nM)

Question: `Cl.O=C(Nc1ccccc1-c1nc2cccnc2s1)c1cc(NCCN2CCCCC2)nc(-c2ccccc2)n1` [Compound 67] was tested. Which EC1.5 did it give?
Answer: A′ (EC1.5<250 nM)

Question: With `COCCN(CCOC)c1cc(C(=O)Nc2ccccc2-c2nc3cccnc3s2)nc(-c2ccccc2)n1` [Compound 68] as the compound, how does the EC1.5 read?
Answer: A′ (EC1.5<250 nM)

Question: How did the EC1.5 turn out when `O=C(Nc1ccccc1-c1nc2cccnc2s1)c1cc(NC(CO)CO)nc(-c2ccccc2)n1` [Compound 69] was run?
Answer: A′ (EC1.5<250 nM)

Question: How did the EC1.5 turn out when `C[C@@H]1CN(c2cc(C(=O)Nc3ccccc3-c3nc4cccnc4s3)nc(-c3ccccc3)n2)C[C@H](C)O1` [Compound 70] was run?
Answer: A (EC1.5≧250 nM and ≦1 uM)

Question: With `O=C(Nc1ccccc1-c1nc2cccnc2s1)c1cc(N2C[C@H]3C[C@@H]2CN3)nc(-c2ccccc2)n1` [Compound 71] as the compound, how does the EC1.5 read?
Answer: A′ (EC1.5<250 nM)

Question: With `O=C(Nc1ccccc1-c1nc2cccnc2s1)c1cc(NC2CCCNC2)nc(-c2ccccc2)n1` (stereo not drawn) [Compound 72] as the compound, how does the EC1.5 read?
Answer: A′ (EC1.5<250 nM)

Question: Which EC1.5 does the source give for `CCSCCNc1cc(C(=O)Nc2ccccc2-c2nc3cccnc3s2)nc(-c2ccccc2)n1` [Compound 73] here?
Answer: B (EC1.5>1 and ≦10 uM)

Question: `CCS(=O)(=O)CCNc1cc(C(=O)Nc2ccccc2-c2nc3cccnc3s2)nc(-c2ccccc2)n1` [Compound 74] was tested. Which EC1.5 did it give?
Answer: A′ (EC1.5<250 nM)

Question: For `C[C@H](Nc1cc(C(=O)Nc2ccccc2-c2nc3cccnc3s2)nc(-c2ccccc2)n1)C(=O)O` [Compound 75], which EC1.5 is on record?
Answer: A (EC1.5≧250 nM and ≦1 uM)

Question: Which EC1.5 does the source give for `NCCCOc1cc(C(=O)Nc2ccccc2-c2nc3cccnc3s2)nc(-c2ccccc2)n1` [Compound 76] here?
Answer: A′ (EC1.5<250 nM)

Question: With `O=C(Nc1ccccc1-c1nc2cccnc2s1)c1ccc(CN2CCOCC2)c(-c2ccccc2)n1` [Compound 77] as the compound, how does the EC1.5 read?
Answer: A (EC1.5≧250 nM and ≦1 uM)
